Molecular target: Opioid receptor (Rattus norvegicus, UniProt P33533+P34975+P33535)
Assay: Binding affinity towards opioid receptor
Format: protein assay

Structure (SMILES)	IC50 [nM]
CN1CC2Oc3cc(O)ccc3[C@@]23CCCC1C3 (stereo partly drawn)	1000
CN1CC[C@@]23CC1CC[C@@H]2Oc1c(O)cccc13	1766
CN1CC[C@]23CCCC1[C@H]2Oc1c(O)cccc13	96

Source: ChEMBL document CHEMBL1123486, “Probes for narcotic receptor mediated phenomena. 9. Synthesis of (+/-)-(3 alpha,6a alpha,11a beta)-1,3,4,5,6,11a-hexahydro-2-methyl-2H-3,6a- methanobenzofuro[2,3-c]azocin-10-ol, an oxide-bridged 5-(m-hydroxyphenyl)morphan” (J Med Chem, 1986)
